According to patent US20100210722A1, “COMPOSITION FOR PREVENTING OR TREATING LIPID METABOLIC DISORDERS COMPRISING FUCOXANTHIN OR MARINE PLANT EXTRACT CONTAINING SAME” (AMICOGEN, INC., priority 2007, published 2010):
Marks after values point to notes of the source that are not given here.

Experiments:
Assay type in all cases: in vivo, C57BL/6N/CriBgi mice
[1] = Body weight of mice fed high fat diet with fucoxanthin extract or highly pure fucoxanthin; settings: high fat diet; for Body weight, Week 0: Week 0 (baseline); for Body weight, Week 0 / Body weight, Week 1 / Body weight, Week 2: in g (unit assumed)
Protocol: Seventy (70) 4-week-old male C57BL/6N/CriBgi mice weighing 14 g were purchased from Orient, and reared in separate cages maintained at 24° C. and relative humidity of 55%, providing light from 08:00 until 20:00. The mice were accustomed while providing a pellet type diet for a week. The mice, which weighed 18.5-18.7 g, were grouped into seven groups by the randomized block design. Each group was given a different diet, as follows.
(§1) Test diets were as follows: “normal diet group”=AIN-76 semisynthetic diet of Teklad (Madison, Wl, USA); “high fat diet group”=normal diet+10% of corn oil and 10% of lard; “test group I”=high fat diet+fucoxanthin extract of Example 1 (fucoxanthin content=0.05%); “test group II”=high fat diet+fucoxanthin extract of Example 1 (fucoxanthin content=0.2%); “test group III”=high fat diet+fucoxanthin extract of Example 2 (fucoxanthin content=0.05%); “test group IV”=high fat diet+fucoxanthin extract of Example 2 (fucoxanthin content=0.2%). The 6 diets (normal diet, high fat diet, and test I, II, III and IV) were given to the animals for 6 weeks. Diet intake was recorded every day, and body weight was measured once a week.
During the 6-week test period, body weight was measured every week. Significance of differences of means of the groups was evaluated by one-way analysis of variance (ANOVA) technique. Duncan's multiple range test was employed for post-evaluation of the groups, with P<0.05.

malic enzyme (ME) = assay: ME activity in adipose tissue; settings: high fat diet, 6 weeks
Excerpt: as §1
(§2) The supernatant was centrifuged again at 12,000×g for 15 minutes. Then, the supernatant was subjected to high-speed centrifuging (Beckman, Optima TLX-120, USA) at 100,000×g for 1 hour. Then, change of the activity of enzymes involved in the synthesis of fatty acid—fatty acid synthase (FAS), glucose-6-phosphate dehydrogenase (G6PD) and malic enzyme (ME)—was measured.
The ME enzyme is also an enzyme that supplied reducing energy required for the synthesis of fatty acid. […] ME activity was determined as follows. […] After 2 minutes of reaction at 27° C., absorbance was measured at 340 nm. ME activity was calculated as nmol of NADPH produced per 1 mg of protein in cell per minute.

[2] = system: glucose-6-phosphate dehydrogenase (G6PD); assay: G6PD activity in adipose tissue; settings: high fat diet, 6 weeks
Excerpt: as §1, §2
The G6PD enzyme is an enzyme that supplied reducing energy required for the synthesis of fatty acid. […] G6PD activity was measured at 340 nm by the degree of reduction of NADP^+ to NADPH by G6PD. […] G6PD activity was calculated as nmol of NADPH produced per 1 mg of protein in cell per minute.

β-oxidase mRNA = assay: Expression of mRNA for β-oxidation in adipose tissue (real-time PCR); settings: normal diet = 1.00, GAPDH internal marker
Excerpt: as §1
5 mL of Trizol was added to 0.5 g of white adipose tissue. After pulverizing in liquid nitrogen using a mortar, the tissue was added to 1 mL of chloroform. […] The isolated RNA was diluted and absorbance was measured at 260 nm using a UV spectrometer. […]
Thus prepared cDNA was […] 10-fold, and primers for analyzing the expression of the respective genes (CPT, β-oxidation, FAS, ME and G6PD) were obtained from Genotech (Daejeon, Korea). […] Fluorescence signals were monitored for each cycle and threshold cycle (Cr) was analyzed for quantitative analysis of mRNA for the test groups (Applied Biosystems, SDS7000) (Livak, 2001). […]

ME mRNA = assay: Expression of mRNA for ME in liver tissue (real-time PCR)
[3] = fucoxanthin content 0.05% (Test I/III)
[4] = fucoxanthin content 0.2% (Test II/IV)

CC(=O)O[C@H]1CC(C)(C)C(=C=C/C(C)=C/C=C/C(C)=C/C=C/C=C(C)/C=C/C=C(\C)C(=O)C[C@@]23O[C@]2(C)C[C@@H](O)CC3(C)C)[C@](C)(O)C1 [highly pure fucoxanthin, Fucoxanthin]
Body weight, Week 0 [1, 3]: 18.56 ± 0.3 | Body weight, Week 1 [1, 3]: 20.19 ± 0.2 | Body weight, Week 2 [1, 3]: 21.79 ± 0.3 | Body weight, Week 3 [1, 3]: 22.70 ± 0.2^b | Body weight, Week 4 [1, 3]: 24.39 ± 0.3^b | Body weight, Week 5 [1, 3]: 26.46 ± 0.3^b | Body weight, Week 6 [1, 3]: 27.80 ± 0.3^b | Body weight, Week 0 [1, 4]: 18.58 ± 0.3 | Body weight, Week 1 [1, 4]: 20.19 ± 0.3 | Body weight, Week 2 [1, 4]: 22.30 ± 0.3 | Body weight, Week 3 [1, 4]: 22.96 ± 0.4^ab | Body weight, Week 4 [1, 4]: 25.17 ± 0.5^ab | Body weight, Week 5 [1, 4]: 26.39 ± 0.6^b | Body weight, Week 6 [1, 4]: 27.37 ± 0.7^bc | ME activity (malic enzyme (ME); [3]): 0.92 ± 0.14^a mmol/min/mg protein | ME activity (malic enzyme (ME); [4]): 0.94 ± 0.11^a mmol/min/mg protein | G6PD activity [2, 3]: 1.25 ± 0.27^a mmol/min/mg protein | G6PD activity [2, 4]: 1.27 ± 0.15^a mmol/min/mg protein | Expression of mRNA, β-Oxidation (β-oxidase mRNA; [3]): 1.41 ± 0.50^b | Expression of mRNA, β-Oxidation (β-oxidase mRNA; [4]): 1.26 ± 0.24^b | Expression of mRNA, ME (ME mRNA; normal diet = 1.00, fucoxanthin content 0.05% (Test I/III)): 0.84 ± 0.08^bc | Expression of mRNA, ME (ME mRNA; normal diet = 1.00, fucoxanthin content 0.2% (Test II/IV)): 0.53 ± 0.03^a
